Drawing on patent US20100204128A1, “NOVEL PEPTIDES” (SANARE INVESTMENT AS, priority 2007, published 2010), this text covers fluorescent readings for 1 substance.

Where “and” joins values, the source holds several entries; their conditions need not be identical. Identical values can stand only once.

Common to all, as to assay type: cell-based
Common to all, as to conditions: 24 hours, duplicate wells

Assay [1] concerns T47D cells. Nature of the assay: AlmarBlue fluorescence cell growth test, T47D cells. The procedure: (§1) Re-feed media were prepared to yield the following final six concentrations of each of the 12 peptides: 5×10^−3, 5×10^−4, 5×10^−5, 5×10^−6, 5×10^−7, and 5×10^−8M. […] With that, the 5×10^−3M mixture contains about 0.42×10^−3M of each peptide. […] With that, the 5×10^−3M mixture contains about 0.42×10^−3M of each of said 8 peptides.
(§2) MCF-7 and T47D cells were seeded into 96-well plates at a density of 10,000 cells per well in 90 μL of appropriate culture medium. TMX2-28 cells were seeded into 96-well plates at a density of 5,000 cells per well in 90 μL of appropriate culture medium. Plates were placed in a 37° C., 5% CO2 incubator and cells were allowed to attach to the bottom of the well for 24 hours after which 10 μL of the appropriate refeed medium was added. Each concentration was tested in duplicate in each cell line. […] Cells were then incubated for 24 hours. Subsequently 10 μL of AlmarBlue (Biosource) was added to each well. After three hours, the fluorescence was detected using a Packard Instrument Plate Reader with 535/20 excitation and 590/20 emission filters.

Assay [2] deals with TMX2-28 cells. Nature of the assay: AlmarBlue fluorescence cell growth test, TMX2-28 cells. How it is done:
With that, the 5×10^−3M mixture contains about 0.42×10^−3M of each peptide. Furthermore, mixtures containing equal volumes of peptides SEQ ID NO:2-SEQ ID NO:7, SEQ ID NO:10 and SEQ ID NO:11 were also prepared (equal volumes of said re-feed media) to yield the following final six concentrations: […] With that, the 5×10^−3M mixture contains about […].
as §2

Assay [3] relates to MCF-7 cells. Nature of the assay: AlmarBlue fluorescence cell growth test, MCF-7 cells. The procedure: as §1, §2
The mark [4] stands for this setting: 5 × 10^−4 M (mixtures: total concentration), decrease vs DC5 = reduced cell growth.
The mark [5] stands for this setting: 5 × 10^−5 M (mixtures: total concentration).
[6] abbreviates: 5 × 10^−6 M (mixtures: total concentration).
The mark [7] stands for this setting: 5 × 10^−7 M (mixtures: total concentration).
Where [8] appears, read: 5 × 10^−8 M (mixtures: total concentration).
Where [9] appears, read: 5 × 10^−9 M (mixtures: total concentration).

“SEQIDNO3: synthesised peptide identified in the 10 kDa blood fraction after acupuncture; sequence not printed in the text (KTFTVTEGSMAGGAWGRL; Derived from human blood sample)”: the fluorescent readings is 61359 and 61718 in assay [1] (setting [4]); 66736 and 61724 in assay [1] (setting [5]); 65079 and 58554 in assay [1] (setting [6]); 64329 and 59141 in assay [1] (setting [7]); 61766 and 61031 in assay [1] (setting [8]); 59482 and 59451 in assay [1] (setting [9]). In addition, the fluorescent readings in assay [2] (setting [4]) was 68963 and 67344; in assay [2] (setting [5]), 69237 and 66454; in assay [2] (setting [6]), 71007 and 67496; in assay [2] (setting [7]), 72558 and 69648; in assay [2] (setting [8]) it was 72686 and 69197; in assay [2] (setting [9]), 69066 and 70821. In addition, the fluorescent readings was 63831 and 65178 in assay [3] (setting [4]); 64053 and 64928 in assay [3] (setting [5]); 64217 and 64899 in assay [3] (setting [6]); 62452 and 66233 in assay [3] (setting [7]); 61563 and 63132 in assay [3] (setting [8]); 62603 and 61621 in assay [3] (setting [9]).
